Patent US12453712B2, “Antitumoral use of cabazitaxel” (Sanofi Mature IP, priority 2009, dated 2025)
Where two headings read alike, the source gives them in different places.

Columns and labels:
[1] = Same clinical study: adverse reactions, hematologic abnormalities, treatment discontinuation, delays and dose reductions; assay type: in vivo, human
Description: A clinical study was performed wherein patients received either treatment with cabazitaxel or the reference treatment based on mitoxantrone each combined with prednisone or prednisolone.
More specifically, patients over 18 years of age with metastatic castration resistant metastatic prostate cancer either measurable by RECIST criteria or non-measurable disease with rising PSA levels or appearance of new lesions, ECOG (Eastern Cooperative Oncology Group) performance stage 0-2, and adequate organ function (patients had to have neutrophils >1,500 cells/mm^3, platelets >100,000 cells/mm^3, hemoglobin >10 g/dL, creatinine <1.5×upper limit of normal (ULN), total bilirubin <1×ULN, AST <1.5×ULN, and ALT <1.5×ULN) who had had prior hormone therapy, chemotherapy, and radiotherapy, but had progressive during or after docetaxel treatment (cumulative dose ≥225 mg/m^2) were randomized to 10 mg/day of prednisone with either mitoxantrone 12 mg/m^2 or cabazitaxel 25 mg/m^2, both administered every 3 weeks.
Patients with a history of congestive heart failure, or myocardial infarction within the last 6 months, or patients with uncontrolled cardiac arrhythmias, angina pectoris, and/or hypertension were not included in the study.
720 patients were planned to be included in the clinical study: 360 in each cabazitaxel+prednisone and mitoxantrone+prednisone group. Seven hundred and fifty-five patients (755) (median age 68; 84% white) were actually enrolled, 378 in the cabazitaxel and prednisone/prednisolone group and 377 in the mitoxantrone and prednisone/prednisolone group. The maximal number of treatment cycles was 10 for cabazitaxel and 10 for mitoxantrone. The median number of treatment cycles was 6 for cabazitaxel and 4 for mitoxantrone. The median prior dose of docetaxel treatment was 576 mg/m^2 for the cabazitaxel group and 529 mg/m^2 for the mitoxantrone group. Median follow-up was 12.8 months.

breast cancer = settings: phase II, cited from earlier work
[2] = human, in vivo, listed as Cabazitaxel
[3] = percent of patients, laboratory values, cabazitaxel: n = 369, mitoxantrone: n = 370

CO[C@H]1C(=O)[C@]2(C)[C@@H](OC)C[C@H]3OC[C@@]3(OC(C)=O)[C@H]2[C@H](OC(=O)c2ccccc2)[C@]2(O)C[C@H](OC(=O)[C@H](O)[C@@H](NC(=O)OC(C)(C)C)c3ccccc3)C(C)=C1C2(C)C [cabazitaxel, 4α-acetoxy-2α-benzoyloxy-5β,20-epoxy-1β-hydroxy-7β,10β-dimethoxy-9-oxo-11-taxen-13α-yl (2R,3S)-3-tert-butoxycarbonyl-amino-2-hydroxy-3-phenylpropionate]
Rates of febrile neutropenia ([1]; Example 1): 7.5% | Dose reductions, cycles (%) ([1]; human, in vivo): 9.8% | Dose reductions, no. of cycles ([1]; human, in vivo): 221 | Treatment delays >9 days, cycles (%) ([1]; human, in vivo): 2.3% | Treatment delays >9 days, no. of cycles ([1]; human, in vivo): 51 | Treatment delays ≤9 days, cycles (%) ([1]; human, in vivo): 7% | Treatment delays ≤9 days, no. of cycles ([1]; human, in vivo): 157 | Dose reductions, cycles (%) [1, 2]: (9.8) % | Treatment delays >9 days, cycles (%) [1, 2]: (2.3) % | Treatment delays ≤9 days, cycles (%) [1, 2]: (7.0) % | Discontinuation of study treatment for adverse event, (%) ([1]; intention-to-treat): (17.7) % | Discontinuation of study treatment for adverse event, no. ([1]; intention-to-treat, N = 377 mitoxantrone, N = 378 cabazitaxel): 67 | most common (≥5%) grade 3-4 adverse reactions ([1]; patients who received cabazitaxel): neutropenia, leukopenia, anemia, febrile neutropenia, diarrhea, fatigue, and asthenia | Abdominal Pain Grade 1-4, (%) ([1]; percent of patients of n = 371): (17%) | Abdominal Pain Grade 3-4, (%) ([1]; percent of patients of n = 371): (2%) | Alopecia Grade 1-4, (%) ([1]; percent of patients of n = 371): (10%) | Anorexia Grade 1-4, (%) ([1]; percent of patients of n = 371): (16%) | Anorexia Grade 3-4, (%) ([1]; percent of patients of n = 371): (<1%) | Arrhythmia Grade 1-4, (%) ([1]; percent of patients of n = 371): (5%) | Arrhythmia Grade 3-4, (%) ([1]; percent of patients of n = 371): (1%) | Arthralgia Grade 1-4, (%) ([1]; percent of patients of n = 371): (11%) | Arthralgia Grade 3-4, (%) ([1]; percent of patients of n = 371): (1%) | Asthenia Grade 1-4, (%) ([1]; percent of patients of n = 371): (20%) | Asthenia Grade 3-4, (%) ([1]; percent of patients of n = 371): (5%) | Back Pain Grade 1-4, (%) ([1]; percent of patients of n = 371): (16%) | Back Pain Grade 3-4, (%) ([1]; percent of patients of n = 371): (4%) | Bone Pain Grade 1-4, (%) ([1]; percent of patients of n = 371): (5%) | Bone Pain Grade 3-4, (%) ([1]; percent of patients of n = 371): (<1%) | Constipation Grade 1-4, (%) ([1]; percent of patients of n = 371): (20%) | Constipation Grade 3-4, (%) ([1]; percent of patients of n = 371): (1%) | Cough Grade 1-4, (%) ([1]; percent of patients of n = 371): (11%) | Dehydration Grade 1-4, (%) ([1]; percent of patients of n = 371): (5%) | Dehydration Grade 3-4, (%) ([1]; percent of patients of n = 371): (2%) | Diarrhea Grade 1-4, (%) ([1]; percent of patients of n = 371): (47%) | Diarrhea Grade 3-4, (%) ([1]; percent of patients of n = 371): (6%) | Dizziness Grade 1-4, (%) ([1]; percent of patients of n = 371): (8%) | Dysgeusia Grade 1-4, (%) ([1]; percent of patients of n = 371): (11%) | Dyspepsia Grade 1-4, (%) ([1]; percent of patients of n = 371): (10%) | Dyspnea Grade 1-4, (%) ([1]; percent of patients of n = 371): (12%) | Dyspnea Grade 3-4, (%) ([1]; percent of patients of n = 371): (1%) | Dysuria Grade 1-4, (%) ([1]; percent of patients of n = 371): (7%) | Fatigue Grade 1-4, (%) ([1]; percent of patients of n = 371): (37%) | Fatigue Grade 3-4, (%) ([1]; percent of patients of n = 371): (5%) | Febrile Neutropenia Grade 1-4, (%) ([1]; percent of patients of n = 371): (7%) | Febrile Neutropenia Grade 3-4, (%) ([1]; percent of patients of n = 371): (7%) | Headache Grade 1-4, (%) ([1]; percent of patients of n = 371): (8%) | Hematuria Grade 1-4, (%) ([1]; percent of patients of n = 371): (17%) | Hematuria Grade 3-4, (%) ([1]; percent of patients of n = 371): (2%) | Hypotension Grade 1-4, (%) ([1]; percent of patients of n = 371): (5%) | Hypotension Grade 3-4, (%) ([1]; percent of patients of n = 371): (<1%) | Mucosal Inflammation Grade 1-4, (%) ([1]; percent of patients of n = 371): (6%) | Mucosal Inflammation Grade 3-4, (%) ([1]; percent of patients of n = 371): (<1%) | Muscle Spasms Grade 1-4, (%) ([1]; percent of patients of n = 371): (7%) | Musculoskeletal Pain Grade 1-4, (%) ([1]; percent of patients of n = 371): (5%) | Musculoskeletal Pain Grade 3-4, (%) ([1]; percent of patients of n = 371): (<1%) | Nausea Grade 1-4, (%) ([1]; percent of patients of n = 371): (34%) | Nausea Grade 3-4, (%) ([1]; percent of patients of n = 371): (2%) | Pain Grade 1-4, (%) ([1]; percent of patients of n = 371): (5%) | Pain Grade 3-4, (%) ([1]; percent of patients of n = 371): (1%) | Pain in Extremity Grade 1-4, (%) ([1]; percent of patients of n = 371): (8%) | Pain in Extremity Grade 3-4, (%) ([1]; percent of patients of n = 371): (2%) | Peripheral Edema Grade 1-4, (%) ([1]; percent of patients of n = 371): (9%) | Peripheral Edema Grade 3-4, (%) ([1]; percent of patients of n = 371): (<1%) | Peripheral Neuropathy Grade 1-4, (%) ([1]; percent of patients of n = 371): (13%) | Peripheral Neuropathy Grade 3-4, (%) ([1]; percent of patients of n = 371): (<1%) | Pneumonia Grade 1-4, (%) ([1]; percent of patients of n = 371): (3%) | Pneumonia Grade 3-4, (%) ([1]; percent of patients of n = 371): (2%) | Pyrexia Grade 1-4, (%) ([1]; percent of patients of n = 371): (12%) | Pyrexia Grade 3-4, (%) ([1]; percent of patients of n = 371): (1%) | Urinary Tract Infection Grade 1-4, (%) ([1]; percent of patients of n = 371): (8%) | Urinary Tract Infection Grade 3-4, (%) ([1]; percent of patients of n = 371): (2%) | Vomiting Grade 1-4, (%) ([1]; percent of patients of n = 371): (22%) | Vomiting Grade 3-4, (%) ([1]; percent of patients of n = 371): (2%) | Weight Decreased Grade 1-4, (%) ([1]; percent of patients of n = 371): (9%) | Anemia Grade 1-4, (%) [1, 3]: (98%) | Anemia Grade 3-4, (%) [1, 3]: (11%) | Leukopenia Grade 1-4, (%) [1, 3]: (96%) | Leukopenia Grade 3-4, (%) [1, 3]: (69%) | Neutropenia Grade 1-4, (%) [1, 3]: (94%) | Neutropenia Grade 3-4, (%) [1, 3]: 81.7% | Thrombocytopenia Grade 1-4, (%) [1, 3]: (48%) | Thrombocytopenia Grade 3-4, (%) [1, 3]: (4%) | Neutropenia Grade 3-4, (%) ([1]; percent of patients, laboratory values, cabazitaxel: n = 369, mitoxantrone: n = 370, listed as Cabazitaxel): (82%) | response level (breast cancer; prior taxanes and anthracyclines as adjuvant): 14.6% | response level (breast cancer; second-line treatment): 9.5%
